The source of these data is PubChem BioAssay (NCI).

Test systems include 786-0 renal; CAKI-1 renal; MDA-N; OVCAR-3 ovarian; SF-268 CNS; SK-OV-3 ovarian; SNB-75 CNS; TK-10 renal; HOP-92 NSCLC.
Assay in all cases: NCI-60 cell line screen, 48 h

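Assay format: 96-well plates, 48-hour exposure. Abbreviation: GI50, concentration required for 50% inhibition of growth. TGI is the concentration that stops growth completely.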

As to `O=C1CCCC2=C1CC1=C(CCCC1=O)N2c1ccc(Cl)cc1`, the TGI in the assay on 786-0 renal, in the assay with CAKI-1 renal, with MDA-N, with OVCAR-3 ovarian, with SF-268 CNS and with SK-OV-3 ovarian was over 100 µM throughout. Besides, the TGI with SNB-75 CNS and with TK-10 renal was over 100 µM each time.
Turning to `Nc1n[n+]([O-])c2ccc(Cl)cc2[n+]1[O-]`, the TGI was over 100 µM with 786-0 renal; 91.2 µM in the assay with CAKI-1 renal; 73.5 µM with MDA-N; over 100 µM with SF-268 CNS; 52.9 µM in the assay with SK-OV-3 ovarian; over 100 µM in the assay on SNB-75 CNS. This compound also came in with a TGI in the assay with TK-10 renal of over 100 µM.
On to `O=C(O)c1cccc([As]=[As]c2cccc(C(=O)O)c2)c1` (configuration not stated), for which the TGI was 71.1 µM in the assay on 786-0 renal; 37.1 µM in the assay on CAKI-1 renal; 37.4 µM in the assay on HOP-92 NSCLC; over 100 µM with MDA-N; over 100 µM with OVCAR-3 ovarian; 72.7 µM with SF-268 CNS. Further, the TGI with SNB-75 CNS is over 100 µM; with TK-10 renal, 57.1 µM.
For `CCN(CC)CCC(=O)/C=C/c1ccc(Cl)c(Cl)c1`, the TGI in the assay on 786-0 renal was over 10 µM; in the assay with HOP-92 NSCLC it was over 10 µM; with MDA-N, over 10 µM; in the assay on OVCAR-3 ovarian, over 10 µM; in the assay on SF-268 CNS, over 10 µM; with TK-10 renal, 9.98 µM.
For the compound `O=[N+]([O-])c1ccc(Sc2cccc[n+]2[O-])c2nonc12`, the GI50 with 786-0 renal is 9.18 µM; with CAKI-1 renal it was 4.85 µM; in the assay with HOP-92 NSCLC it was 5.45 µM; in the assay with OVCAR-3 ovarian, 1.07 µM; in the assay on SF-268 CNS it was 5.27 µM; with SK-OV-3 ovarian it was 30 µM. The GI50 in the assay on SNB-75 CNS is 11.1 µM; with TK-10 renal it was 8.41 µM. Moreover, the TGI in the assay with 786-0 renal was 22.3 µM; with CAKI-1 renal, 15.4 µM; in the assay on HOP-92 NSCLC, 23.7 µM; with OVCAR-3 ovarian, 2.48 µM; in the assay with SF-268 CNS, 21.1 µM; in the assay with SK-OV-3 ovarian, over 100 µM. In addition, the TGI in the assay on SNB-75 CNS was found to be 39.6 µM; in the assay with TK-10 renal, 20.8 µM.
As for `N#CC1=C(N)NC(=O)C(C#N)C12Nc1ccccc1S2` (configuration not stated), the GI50 in the assay on 786-0 renal was over 100 µM; with CAKI-1 renal, over 100 µM; in the assay with HOP-92 NSCLC it was 74 µM; in the assay on OVCAR-3 ovarian, 32.6 µM; in the assay with SF-268 CNS it was over 100 µM; in the assay with SK-OV-3 ovarian, 66.6 µM. For the same compound, the GI50 in the assay on SNB-75 CNS was over 100 µM; in the assay on TK-10 renal it was 38.9 µM. The TGI with 786-0 renal, in the assay on CAKI-1 renal, in the assay on HOP-92 NSCLC, with OVCAR-3 ovarian, with SF-268 CNS and with SK-OV-3 ovarian was over 100 µM each time. In addition, the TGI with SNB-75 CNS and in the assay with TK-10 renal was over 100 µM in each case.
`COc1ccc(Cn2cc3c(c2-c2ccccc2)CCc2cnoc2-3)cc1`: the GI50 is 0.243 µM in the assay on 786-0 renal; 0.0883 µM with CAKI-1 renal; 3.31 µM in the assay with HOP-92 NSCLC; 0.137 µM in the assay on OVCAR-3 ovarian; 0.488 µM with SF-268 CNS; 0.226 µM with SK-OV-3 ovarian. Besides, the GI50 with SNB-75 CNS was 0.165 µM; in the assay with TK-10 renal it was over 34.5 µM. Besides, the TGI in the assay with CAKI-1 renal is over 100 µM; in the assay with HOP-92 NSCLC it was over 100 µM; in the assay with OVCAR-3 ovarian, 0.509 µM; in the assay on SF-268 CNS, over 100 µM; with SK-OV-3 ovarian, over 100 µM; in the assay with SNB-75 CNS, over 100 µM. Also, the TGI in the assay with TK-10 renal is over 100 µM.
Turning to `COc1ccc(-n2nc(C)c3c(Nc4ccc(NC(=O)Nc5cccc(C(F)(F)F)c5)cc4)ncnc32)cc1`, the GI50 in the assay on 786-0 renal is 1.56 µM; with CAKI-1 renal it was 1.46 µM; in the assay on HOP-92 NSCLC, 1.59 µM; with OVCAR-3 ovarian it was 1.74 µM; in the assay on SF-268 CNS it was 2.14 µM; with SK-OV-3 ovarian it was 2.13 µM. Moreover, the values for the GI50 in the assay on SNB-75 CNS and with TK-10 renal were 0.87 µM and 2.39 µM, respectively. In addition, the TGI in the assay with 786-0 renal is 3.03 µM; in the assay on CAKI-1 renal, 2.96 µM; with HOP-92 NSCLC, 3.31 µM; in the assay with OVCAR-3 ovarian, 3.92 µM; in the assay with SF-268 CNS, 5.51 µM; with SK-OV-3 ovarian, 5.3 µM. The TGI with SNB-75 CNS stood at 3.03 µM; in the assay with TK-10 renal it was 6.6 µM.
For the compound `CN1CCN(C2=C(Cl)C(=O)c3ccccc3C2=O)CC1`, the GI50 with 786-0 renal is 1.77 µM; in the assay with CAKI-1 renal it was 1.77 µM; with HOP-92 NSCLC, 1.52 µM; in the assay on OVCAR-3 ovarian it was 1.39 µM; with SF-268 CNS it was 2.82 µM; in the assay with SK-OV-3 ovarian, 9.11 µM. Besides, the GI50 was 1.91 µM in the assay on SNB-75 CNS and 1.71 µM in the assay with TK-10 renal. Further, the TGI with 786-0 renal stood at 3.39 µM; in the assay with CAKI-1 renal, 3.39 µM; in the assay with HOP-92 NSCLC it was 3.07 µM; in the assay with OVCAR-3 ovarian, 2.69 µM; with SF-268 CNS, 10.9 µM; in the assay on SK-OV-3 ovarian, 22.4 µM. The TGI is 4.91 µM in the assay on SNB-75 CNS and 3.29 µM in the assay with TK-10 renal.
Consider `N[C@H]1CCC[C@@H](O)C1O` (some centres not stated), for which the TGI with 786-0 renal, in the assay with CAKI-1 renal, in the assay on MDA-N, in the assay on OVCAR-3 ovarian, with SF-268 CNS and in the assay on SK-OV-3 ovarian was over 100 µM each time. This compound came in with a TGI in the assay with SNB-75 CNS of over 100 µM.
For `CN(C)CCNC(=O)c1ccc2c(c1)oc1cc3ccccc3c(=O)n12`, the GI50 in the assay with 786-0 renal was 18.2 µM; with CAKI-1 renal, 10.8 µM; in the assay on HOP-92 NSCLC, 9.78 µM; in the assay on OVCAR-3 ovarian, 13.2 µM; with SF-268 CNS it was 15.4 µM; in the assay on SK-OV-3 ovarian, 13.8 µM. The GI50 was 11.1 µM with SNB-75 CNS and 12.9 µM with TK-10 renal. The TGI in the assay on 786-0 renal stood at 33.1 µM; with CAKI-1 renal it was 25.4 µM; in the assay on HOP-92 NSCLC it was 38.4 µM; in the assay with OVCAR-3 ovarian, 30.4 µM; in the assay on SF-268 CNS it was 31.7 µM; in the assay with SK-OV-3 ovarian, 30.9 µM. Also, the TGI in the assay with SNB-75 CNS came to 27.4 µM; in the assay with TK-10 renal, 31.4 µM.
With `COc1ccc(-c2nc(NC(=O)CS(=O)(=O)c3ccc(F)cc3)sc2C)cc1`, the GI50 with 786-0 renal is 23 µM; with CAKI-1 renal, 24.2 µM; in the assay with HOP-92 NSCLC, 14.2 µM; in the assay with OVCAR-3 ovarian it was 15.7 µM; in the assay on SF-268 CNS it was 28.7 µM; in the assay on SK-OV-3 ovarian, 24.1 µM. Besides, the values for the GI50 with SNB-75 CNS and with TK-10 renal were 9.45 µM and 28.9 µM, respectively. Also, the TGI is 61.3 µM in the assay with 786-0 renal; over 100 µM in the assay with CAKI-1 renal; 48 µM in the assay on HOP-92 NSCLC; 39.9 µM in the assay on OVCAR-3 ovarian; over 100 µM in the assay on SF-268 CNS; over 100 µM with SK-OV-3 ovarian. The TGI is 60.9 µM with SNB-75 CNS and 81.2 µM in the assay on TK-10 renal.
